According to the METLIN SMRT retention time set (Domingo-Almenara et al. 2019):

Assay: gradient 5% acetonitrile 3 min, to 50% in 2 min, to 85% in 15 min, held 3 min, 100 µL/min
Conditions: column: Zorbax Extend-C18 2.1 x 50 mm; eluents: water / acetonitrile, 0.1% formic acid
In short: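 Retention time was recorded from adduct peaks, which were picked computationally and each inspected manually. Pure standards ran in mixtures of ~100 molecules on HPLC coupled to a quadrupole time-of-flight mass spectrometer, in positive and negative ionization mode, through a Zorbax Extend-C18 column (2.1 × 50 mm, 1.8 μm) at 100 μL/min. Eluents were water and acetonitrile, each with 0.1% formic acid.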

| Structure (SMILES) | RP-LC retention time [s] |
| --- | --- |
| CC1=CN2C(c3cccc([N+](=O)[O-])c3)=NON(c3ccc(C)cn3)C2C=C1 (stereo unspecified) | 1190 |
| O=S(=O)(c1cc(-c2nnc(C3CCC3)o2)co1)N1CCN(c2ccccc2)CC1 | 1050 |
| Cc1cc(NC(=O)C2CCN(S(=O)(=O)c3ccc(F)cc3)CC2)n(C)n1 | 732 |
| Cc1cc(N2CCN(C)CC2)nc(N2CCN(S(=O)(=O)c3cc(C)c(C)cc3C)CC2)n1 | 598 |
| Cc1nc(N2CCN(Cc3ccc4c(c3)OCO4)CC2)nc2c1C(=O)CC(c1cccs1)C2 (stereo unspecified) | 753 |
| COc1c(O)ccc2c1CN1CCc3cc4c(cc3C1C2)OCO4 (stereo unspecified) | 688 |
| COc1ccc(NC(=O)C2CCN(S(=O)(=O)c3cn(C)cn3)CC2)c(OC)c1 | 666 |
| COc1cc2nc(C(=O)N3CCC(C)CC3)cc(Nc3cccc(SC)c3)c2cc1OC | 776 |
| Cc1cccc(N2C(=O)CN(Cc3ccccc3C)[C@H]3CS(=O)(=O)C[C@H]32)c1 | 872 |
| CC(C)CCN1CCC(N2CCN(S(=O)(=O)Cc3ccccc3)CC2)C1=O (stereo unspecified) | 646 |
| CCCn1nc(-n2cnnc2)c(NC(=O)c2cc(OC)cc(OC)c2)c1C | 682 |
| CC(C)c1ccc(-c2ccc(=O)n(CCc3nc(-c4ccc5c(c4)OCO5)no3)n2)cc1 | 1140 |
| Cc1ccc(N2N=C(C(=O)N3CCCC3)S(=O)(=O)c3cccnc32)cc1 | 830 |
| Cc1c(Cl)cccc1NS(=O)(=O)c1cc(-c2nc(C(C)(C)C)cs2)cs1 | 1340 |
| Cc1ccccc1C(=O)NC1CCN(c2cc(-c3cccs3)[nH]n2)C1 (stereo unspecified) | 705 |
| Nc1nc(-c2ccccc2)c(C(=O)c2ccccc2)s1 | 706 |
| O=[N+]([O-])c1c(-c2nc3ccc(Cl)cn3c2Nc2ccc(Cl)cc2)ccc2c1OCO2 | 1000 |
| Cc1cc(-c2nnc(C3CC3)o2)c(C)n1CC(=O)NCc1ccc(F)cc1Cl | 840 |
| CCOc1ccccc1C1NC(=O)N(CC(=O)Nc2ccc3c(c2)CCC3)C2=C1C(=O)OC2 (stereo unspecified) | 900 |
| O=C(NC1CCCCC1)C1CCc2sc(C(=O)N3CCOCC3)cc2C1 (stereo unspecified) | 741 |
| Cc1ncoc1C(=O)N(C)C1CCc2nn(CC3CC3)c(=O)n2CC1 (stereo unspecified) | 594 |
| Cc1ccc(NC(=O)NC2CCN(c3ccccc3)C2=O)cc1 (stereo unspecified) | 821 |
| CCOc1ccccc1NC(=O)Cn1c(=O)n(-c2ccccc2)c(=O)c2c1cc(C)n2C | 909 |
| NS(=O)(=O)OC[C@@H]1C[C@@H](n2ccc3c(N[C@H]4CCc5ccccc54)ncnc32)C[C@H]1O | 724 |
| O=[N+]([O-])c1ccc(-c2nc(N3CCCCCC3)c3ccccc3n2)cc1 | 820 |
| Cc1cccc(OCc2nc(-c3cccc(-c4csc(C5CC5)n4)c3)no2)c1 | 1430 |
| Cc1ccc(-c2noc(-c3nn(CC(=O)NC4CCC(C)CC4)c4ccccc34)n2)cc1 (stereo unspecified) | 1300 |

| Structure (SMILES) | RP-LC retention time [s] |
| --- | --- |
| COC1C(=O)N(CC2CC2)C12CCN(C(=O)C(C)C)CC2 (stereo unspecified) | 686 |
| O=C(C1CCCO1)N1CCc2ccc(NS(=O)(=O)c3ccc(F)c(Cl)c3)cc21 (stereo unspecified) | 813 |
| Cc1cccc(N2CCN(C(=O)CN3CCN(Cc4ccc(F)cc4Cl)C3=O)CC2)c1 | 957 |
| CC1=C(c2ccc(Cl)cc2)S(=O)(=O)N=C1N1CCC(C(=O)NCCN2CCOCC2)CC1 | 592 |
| CCC1(O)CCOC2(CCN(Cc3cc(OC)cc(OC)c3)CC2)C1 (stereo unspecified) | 568 |
| CN(C)S(=O)(=O)c1ccc(C(=O)N2CCC(Oc3nc4ccccc4s3)CC2)cc1 | 892 |
| O=C(c1cccn2c(=O)c3c4c(sc3nc12)CCCC4)N1CCN(c2ccccn2)CC1 | 656 |
| COc1ccc(NC(=O)Cn2nc3c(N4CCSCC4)nccn3c2=O)c(OC)c1 | 797 |
| O=c1cc(-c2ccc(O)cc2)oc2cc(O[C@@H]3O[C@H](CO)[C@H](O)[C@H](O)[C@H]3O)cc(O)c12 | 746 |
| CN(C)C(=O)C1CN(C(=O)c2ccc(Br)cc2)CC12CCOCC2 (stereo unspecified) | 631 |
| CCOC(=O)C1CCN(C(=O)C(C)n2c(=O)c(C(F)(F)F)nc3cc(C)c(C)cc32)CC1 (stereo unspecified) | 1170 |
| CC(C)c1ccc(-c2nc(C3CC(=O)N(c4ccc(F)cc4)C3)no2)cc1 (stereo unspecified) | 1180 |
| O=C(CC1(O)C(=O)Nc2c(Cl)cc(Cl)cc21)c1cccc2ccccc12 (stereo unspecified) | 862 |
| O=C(Nc1ccc(F)cc1)N1CCN(Cc2nc3cc(-c4ccccc4)ccc3o2)CC1 | 860 |
| COc1ccc(-c2c(C)noc2NC(C)=O)cc1S(=O)(=O)N1CCN(C(=O)c2ccco2)CC1 | 670 |
| Cc1cc(Nc2nc(C(=O)NCCN3CCOCC3)cc3occc23)ccc1Br | 621 |
| CCOC(=O)Cc1c(C)nc2c(-c3ccccc3)c(C)nn2c1C | 1080 |
| COC(=O)[C@H]1[C@H]2C[C@@H]3c4[nH]c5cc(OC)ccc5c4CCN3C[C@H]2C[C@@H](OC(=O)CC(C)=O)[C@@H]1OC | 731 |
| CCn1cc(-c2nc(-c3ccc(Cl)cc3)no2)c(=O)c2cc(F)c(N3CCOCC3)cc21 | 1020 |
| COc1cc(OC)cc(C(=O)N2CCC3(CC2)NC(=O)c2cc(C)ccc2N3C)c1 | 795 |
| c1ccc(-c2nc(CSc3ccc(-n4cccn4)nn3)cs2)cc1 | 1020 |
| O=C(Cn1cccc(-c2nc(-c3ccccc3)no2)c1=O)Nc1ccc(Br)cc1F | 951 |
| O=c1n(Cc2cccc(Br)c2)nc2c(S(=O)(=O)N3CCOCC3)cccn12 | 811 |
| CN(C)[C@@H]1CN(C(=O)c2ccc(Br)cc2F)C[C@H]1CO | 581 |
| O=C(CCc1nnn2c1CN(C(=O)c1ccoc1)CC2)N1CCOCC1 | 580 |
| CC1CCCCN1CCNS(=O)(=O)c1ccccc1-c1nc(-c2ccc(F)cc2)no1 (stereo unspecified) | 755 |
| CC(C)OCCCNC(=O)C1CCCN(c2ccc(=O)n(-c3cccc(Cl)c3)n2)C1 (stereo unspecified) | 789 |

More lines, now with the values ahead:

| RP-LC retention time [s] | Structure (SMILES) |
| --- | --- |
| 773 | COc1ncc(C(=O)NCc2ccc(C(F)(F)F)cc2)cn1 |
| 676 | O=C(Nc1cnc(N2CCCC2)nc1)c1ccccc1 |
| 684 | COc1ccc(CNC(=O)CN2CCN(Cc3ccccc3)C(=O)C2=O)cc1 |
| 619 | CC(C)n1c(CN2CCOCC2)nc2cc(NC(=O)c3ccco3)ccc21 |
| 656 | COC[C@@H]1CN(Cc2c(OC)cccc2OC)C[C@H]1c1ccncc1 |
| 785 | Cc1cc(SCC(=O)Nc2ccc(Cl)cc2C(F)(F)F)nc(-c2cccnc2)n1 |
| 766 | O=C(CSc1ccc(-c2cccc([N+](=O)[O-])c2)nn1)NCc1cccs1 |
| 815 | Cc1ccn(-c2ccc(C(=O)NC3CCCC3)cn2)n1 |
| 827 | COc1cc(C(=O)N2CCN(c3cc(-c4ccc(Cl)cc4)[nH]n3)CC2)cc(OC)c1OC |
| 595 | COCc1ccc(C(=O)Nc2nnc(C)s2)o1 |
| 731 | O=C(NCCCN1CCCC1=O)c1ccc2nc(Cc3ccccc3)oc2c1 |
| 686 | CN(C)c1nc2ncn3c(=O)n(CC(=O)NCc4ccccc4Cl)nc3c2s1 |
| 699 | Cc1nc(N(C)C(=O)Cc2ccc(-c3ccccn3)cc2)sc1S(N)(=O)=O |
| 602 | O=C(NCC1(CO)CC1)c1ccc2nsnc2c1 |
| 993 | O=C(CC1Sc2ccc(C(F)(F)F)cc2NC1=O)Nc1cccc(Cl)c1Cl (stereo unspecified) |
| 936 | COc1ccc(C)cc1NC(=O)Cn1nc2c(Oc3cccc(F)c3)nccn2c1=O |

| RP-LC retention time [s] | Structure (SMILES) |
| --- | --- |
| 926 | Cc1ccccc1NC(=O)N(C)CCc1noc(COc2ccccc2F)n1 |
| 681 | CC(C)(CO)NC(=O)Cc1ccc(NC(=O)CSc2ccc(F)cc2)cc1 |
| 581 | COC[C@@H]1CN(Cc2ccc3[nH]ccc3c2)C[C@H]1c1ccncc1 |
| 556 | CCN(CC)CCNC(=O)Cc1cc(-c2ccc(F)cc2F)on1 |
| 818 | CCNC(=O)C1c2ccccc2C(=O)N(CC(C)C)C1c1cccs1 (stereo unspecified) |
| 887 | COc1ccc(-c2nnc(N3CCC(C(=O)NCC4CCCCC4)CC3)o2)cc1 |
| 566 | Cc1cccc(CC(=O)NCC2CCN(Cc3ccccc3)CC2)c1 |
| 1030 | O=C(Cn1cc(-c2nc(-c3ccc(Cl)cc3)no2)ccc1=O)NC1CCCCC1 |
| 958 | O=C(NCCC1=CCCCC1)c1ccc2ccnc(N3CCN(c4ccccc4)CC3)c2c1 |
| 1170 | Clc1ccc(-c2csc(NCc3ccccc3)n2)cc1 |
| 667 | Cc1ccc(NC(=O)N2CCCC(Cn3cnc4cccnc43)C2)cc1 (stereo unspecified) |
| 686 | CCc1nn2c(CNC(=O)c3cccc(Br)c3)c(C)nc2s1 |
| 1190 | COc1ccc(C2Cn3nnc(-c4nc(-c5cccc(C)c5)no4)c3CO2)cc1 (stereo unspecified) |
| 887 | Cc1ccc(N(Cc2nc3nc(C)c(Cl)c(C)n3n2)C(=O)c2ccco2)cc1 |
| 622 | CC(NC(=O)c1ccc2c(c1)nc1n2CCN(Cc2ccccc2)C1=O)c1ccccn1 (stereo unspecified) |
| 726 | CCNC(=O)Nc1ccc2c(c1)CN(Cc1cn(C(C)C)c3ccc(OC)cc13)CCO2 |
